# Measured values published in publication PMC11545999, “Angular-Substituted [1,4]Thiazino[3,4-a]Isoquinolines: Biological Evaluation and In Silico Studies on DPP-IV Inhibition” (International Journal of Molecular Sciences, 2024).
# Molecular target: T1, DPP-IV (Homo sapiens, UniProt P27487)
# T1 construct: gene DPP4
# Assay: fluorogenic AMC substrate cleavage assay (SensoLyte AMC DPP-IV Assay Kit)
# Format: biochemical
# T1 sequence (P27487 39-766): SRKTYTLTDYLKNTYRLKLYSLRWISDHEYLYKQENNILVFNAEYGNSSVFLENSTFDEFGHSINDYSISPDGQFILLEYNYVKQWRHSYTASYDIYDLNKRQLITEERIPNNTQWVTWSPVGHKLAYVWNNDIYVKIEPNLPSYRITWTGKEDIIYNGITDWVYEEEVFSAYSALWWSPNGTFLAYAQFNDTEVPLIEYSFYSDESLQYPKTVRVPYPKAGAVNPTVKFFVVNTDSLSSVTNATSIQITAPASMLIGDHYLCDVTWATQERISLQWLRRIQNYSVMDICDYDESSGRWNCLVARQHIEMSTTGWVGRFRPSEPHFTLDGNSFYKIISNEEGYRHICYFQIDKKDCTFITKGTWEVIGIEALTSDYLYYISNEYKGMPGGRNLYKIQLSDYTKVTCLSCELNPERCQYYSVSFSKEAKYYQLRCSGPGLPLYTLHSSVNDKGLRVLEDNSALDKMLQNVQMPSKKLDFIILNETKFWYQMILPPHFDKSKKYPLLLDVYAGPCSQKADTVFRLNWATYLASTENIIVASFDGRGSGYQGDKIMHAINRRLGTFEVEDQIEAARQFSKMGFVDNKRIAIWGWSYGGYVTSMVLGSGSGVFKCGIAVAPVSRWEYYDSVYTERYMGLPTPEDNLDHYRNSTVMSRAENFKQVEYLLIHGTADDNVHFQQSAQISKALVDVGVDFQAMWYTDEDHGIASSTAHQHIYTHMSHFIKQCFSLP
row,Compound,IC50 [µM]
1,COc1cc2c(cc1OC)[C@@]1(c3ccc(C(F)(F)F)cc3)[C@@H](C(=O)O)SCC(=O)N1CC2 (relative stereo) [4f],15.9
2,COc1cc2c(cc1OC)[C@@]1(c3ccc(F)cc3)[C@@H](C(=O)O)SCC(=O)N1CC2 (relative stereo) [4g],0.35
3,COc1cc2c(cc1OC)C1C(C(=O)O)SCC(=O)N1CC2 (stereo not drawn) [4a],41.1
